Experimental findings from ChEMBL document CHEMBL1201862, “PubChem BioAssay data set” (2004) are described below.

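How tested: cells in 96-well plates exposed to compound for 48 hours at five concentrations. At the GI50, growth is halved.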 Calls of active or inactive are those of the source. Cut-off read from the data, not from the text of the source: active = GI50 up to about 1.1 µM and inactive = higher. A value given as a limit tells only on which side of the number the result lay.

Test systems include HCT-116; DU-145; CAKI-1; OVCAR-3; A549; UACC-257; K562; OVCAR-4; HOP-92; MOLT-4; PC-3; Malme-3M; OVCAR-5; SF-295; CCRF-CEM; SK-MEL-28; TK-10; HT-29; HCT-15; SR.
Holding throughout (assay): NCI anticancer screen, dose series, 48 h

Consider `C[C@]12CC[C@H]3[C@@H](CC=C4C[C@@H](N5CCCC5)CC[C@@]43C)[C@@H]1C[C@H](N1CCCCC1)[C@@H]2O`, for which the GI50 was 91.4 µM (inactive) with HCT-116; > 100 µM (inactive) in the assay on DU-145; > 100 µM (inactive) with CAKI-1; > 100 µM (inactive) in the assay on OVCAR-3; > 100 µM (inactive) in the assay with A549; 23.3 µM (inactive) in the assay with UACC-257. Moreover, the GI50 in the assay with K562 was 16.9 µM (inactive); in the assay with OVCAR-4 it was > 100 µM (inactive); with HOP-92 it was 83.8 µM (inactive); in the assay on MOLT-4, > 100 µM (inactive); in the assay with PC-3, > 100 µM (inactive); in the assay with Malme-3M, 42.5 µM (inactive). In addition, the GI50 with OVCAR-5 was 99.8 µM (inactive); in the assay with SF-295, > 100 µM (inactive); in the assay on CCRF-CEM, > 100 µM (inactive); with SK-MEL-28, 45.3 µM (inactive); in the assay with TK-10, > 100 µM (inactive); in the assay on HT-29, 14.3 µM (inactive). Besides, the figures for the GI50 in the assay on HCT-15 and with SR were 33.8 µM and 11.4 µM (inactive), respectively.
As to `CO[C@@H]1C[C@H]2[C@@H]3CC[C@H]([C@@H](C)CO)[C@@]3(C)CC[C@@H]2[C@@]2(C)CC[C@H]3C[C@]312`, the GI50 is 34.4 µM (inactive) in the assay on HCT-116; 85.5 µM (inactive) in the assay with DU-145; 89.7 µM (inactive) with CAKI-1; 45.1 µM (inactive) in the assay on OVCAR-3; 36 µM (inactive) with A549; 34 µM (inactive) in the assay with UACC-257. Besides, the GI50 was 22.8 µM (inactive) in the assay on K562; 33.2 µM (inactive) in the assay with OVCAR-4; 18.9 µM (inactive) in the assay on HOP-92; 31.1 µM (inactive) in the assay on MOLT-4; 22.6 µM (inactive) in the assay with PC-3; 19.5 µM (inactive) in the assay with Malme-3M. The GI50 in the assay with OVCAR-5 was > 100 µM (inactive); in the assay on SF-295, 30.5 µM (inactive); in the assay on CCRF-CEM, 40.2 µM (inactive); in the assay with SK-MEL-28 it was 27.6 µM (inactive); in the assay on TK-10 it was > 100 µM (inactive); with HT-29 it was 18.5 µM (inactive). Further, the GI50 was 33.3 µM with HCT-15 and 31.6 µM (inactive) in the assay on SR.
On to `O=C(CSc1nnc(-c2ccccn2)s1)N/N=C/c1ccccc1`, for which the GI50 in the assay on HCT-116, in the assay on DU-145, with CAKI-1, in the assay with OVCAR-3, in the assay on A549 and in the assay with UACC-257 was > 100 µM (inactive) throughout. The GI50 in the assay with K562 was > 100 µM (inactive); in the assay on OVCAR-4, > 100 µM (inactive); in the assay with HOP-92 it was 86.7 µM (inactive); in the assay with MOLT-4, 63.5 µM (inactive); in the assay on PC-3, > 100 µM (inactive); in the assay on Malme-3M, 97.7 µM (inactive). Further, the GI50 in the assay on OVCAR-5 was > 100 µM (inactive); in the assay on SF-295 it was > 100 µM (inactive); with CCRF-CEM, > 100 µM (inactive); in the assay on SK-MEL-28, > 100 µM (inactive); in the assay on TK-10 it was 89.1 µM (inactive); in the assay with HT-29, > 100 µM (inactive). The GI50 in the assay with HCT-15 is more than 100 µM; in the assay on SR it was > 100 µM (inactive).
`C=CCNC1=C2C[C@@H](C)C[C@@H](OC)[C@H](OC(=O)CN)[C@H](C)/C=C(\C)[C@@H](OC(N)=O)[C@H](OC)/C=C\C=C(/C)C(=O)NC(=CC1=O)C2=O`: the GI50 in the assay with HCT-116 is 0.575 µM (active); with DU-145 it was 0.783 µM (active); in the assay with CAKI-1, 4.6 µM (inactive); in the assay on OVCAR-3, 1.16 µM (inactive); in the assay on A549 it was 0.359 µM (active); in the assay on UACC-257, 0.528 µM (active). Further, the GI50 was 0.337 µM (active) in the assay on K562; 4.35 µM (inactive) with OVCAR-4; 3.41 µM (inactive) with HOP-92; 1.21 µM (inactive) in the assay on MOLT-4; 0.4 µM (active) in the assay with PC-3; 0.456 µM (active) with Malme-3M. Besides, the GI50 was 6.25 µM (inactive) with OVCAR-5; 0.488 µM (active) in the assay on SF-295; 1.27 µM (inactive) in the assay with CCRF-CEM; 2.05 µM (inactive) in the assay with SK-MEL-28; 0.355 µM (active) with TK-10; 0.0406 µM (active) in the assay with HT-29. Also, the GI50 is 3.49 µM in the assay with HCT-15 and 0.134 µM (active) in the assay with SR.
As for `Cc1c(O)c(OC2OC(CO)C(O)C(O)C2O)cc2c1CC[C@@H]1C2(C)C(=O)C[C@]2(C)[C@@H]([C@@](C)(O)C(O)CCC(C)(C)O)[C@H](O)C[C@@]12C` (stereo not given in full), the GI50 with HCT-116, in the assay on DU-145, with CAKI-1, with OVCAR-3, in the assay on A549 and in the assay with UACC-257 was > 100 µM (inactive) throughout. The GI50 in the assay on K562, in the assay on OVCAR-4, in the assay with HOP-92, in the assay with MOLT-4, with PC-3 and in the assay with Malme-3M was > 100 µM (inactive) throughout. For the same compound, the GI50 in the assay on OVCAR-5, with SF-295, in the assay on CCRF-CEM, in the assay with SK-MEL-28, with TK-10 and with HT-29 was > 100 µM (inactive) throughout. The results for the GI50 with HCT-15 and in the assay with SR were more than 100 µM and > 100 µM (inactive), respectively.
For `Cc1cc(=O)oc2c(CN3CCCCC3)c(O)ccc12`, the GI50 in the assay on HCT-116, in the assay on DU-145, with CAKI-1, in the assay on OVCAR-3, in the assay with A549 and in the assay with UACC-257 was > 100 µM (inactive) throughout. The GI50 in the assay on K562, in the assay on OVCAR-4, in the assay with HOP-92, in the assay on MOLT-4, in the assay on PC-3 and in the assay on Malme-3M was > 100 µM (inactive) each time. Also, the GI50 in the assay with OVCAR-5, in the assay on SF-295, with CCRF-CEM, with SK-MEL-28, with TK-10 and in the assay on HT-29 was > 100 µM (inactive) throughout. Besides, the GI50 in the assay with HCT-15 was more than 100 µM; in the assay with SR, > 100 µM (inactive).
